Source: patent US20240075087A1, “COMPOSITIONS AND METHODS COMPRISING HEMP EXTRACT FOR THE TREATMENT OF ANIMALS IN NEED” (Portland Technology Holdings LLC, priority 2021, published 2024)
≈ marks a conversion by molar mass, not a printed value. Structures can show the parent of a compound that is named as a salt.

What was measured:
[1] = biological target: CYP3A12 (Canis lupus familiaris, UniProt P24463); assay: CYP3A12 activity inhibition in pooled dog liver microsomes; settings: CYP3A12; no preincubation vs 20 min preincubation; 10 μM
CYP3A12, sequence (P24463 whole entry): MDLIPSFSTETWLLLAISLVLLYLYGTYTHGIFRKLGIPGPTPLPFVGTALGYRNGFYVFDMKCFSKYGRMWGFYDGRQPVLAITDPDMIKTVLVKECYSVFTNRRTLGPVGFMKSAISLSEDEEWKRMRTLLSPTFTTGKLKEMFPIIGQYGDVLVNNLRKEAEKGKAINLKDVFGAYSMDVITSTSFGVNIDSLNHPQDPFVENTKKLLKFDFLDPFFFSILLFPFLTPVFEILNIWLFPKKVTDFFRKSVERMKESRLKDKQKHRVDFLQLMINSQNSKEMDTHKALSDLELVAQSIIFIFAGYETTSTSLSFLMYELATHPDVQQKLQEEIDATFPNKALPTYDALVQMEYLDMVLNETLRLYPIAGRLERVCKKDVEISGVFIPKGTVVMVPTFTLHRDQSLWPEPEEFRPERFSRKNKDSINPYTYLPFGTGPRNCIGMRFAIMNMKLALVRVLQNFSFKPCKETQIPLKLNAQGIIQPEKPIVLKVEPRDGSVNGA
Protocol: (§1) Inhibition potency (i.e. IC50) is determined by measuring the decrement in metabolism of P450-specific marker activities in pooled dog liver microsomes with increasing concentrations of CBD, CBDA, and hemp extracts. P450-specific markers include bupropion 6-hydroxylation (CYP2B11), dextromethorphan 0-demethylation (CYP2D15) and omeprazole sulfoxidation (CYP3A12). IC50 values are determined both with and without preincubation of liver microsomes with potential inhibitor to evaluate whether there is mechanism-based time-dependent inhibition.
(§2) The following parameters are assessed: (1) the rates of CBD and CBDA metabolism by dog liver microsomes and by 11 recombinant canine P450 enzymes; (2) the predicted percent contribution of each P450 to total CBD and CBDA metabolism in dog liver; and (3) IC50 values for inhibition of CYP2B11, CYP2D15 and CYP3A12 metabolism in dog liver, both with and without inhibitor preincubation.
(§3) FIGS. 13-15 show activity assays for CYP3A12 (FIGS. 13A and 13B), CYP2B11 (FIGS. 14A and 14B), and CYP2D15 (FIGS. 15A and 15B). Assays using either no preincubation (FIGS. 13A, 14A, and 15A) or 20 minutes of preincubation (FIGS. 13B, 14B, and 15B) were performed.

[2] = biological target: T1, CYP2B11 (Canis lupus familiaris, UniProt P24460); assay: CYP2B11 activity inhibition in pooled dog liver microsomes; settings: CYP2B11; no preincubation vs 20 min preincubation; 10 μM
T1 sequence (P24460 1-494): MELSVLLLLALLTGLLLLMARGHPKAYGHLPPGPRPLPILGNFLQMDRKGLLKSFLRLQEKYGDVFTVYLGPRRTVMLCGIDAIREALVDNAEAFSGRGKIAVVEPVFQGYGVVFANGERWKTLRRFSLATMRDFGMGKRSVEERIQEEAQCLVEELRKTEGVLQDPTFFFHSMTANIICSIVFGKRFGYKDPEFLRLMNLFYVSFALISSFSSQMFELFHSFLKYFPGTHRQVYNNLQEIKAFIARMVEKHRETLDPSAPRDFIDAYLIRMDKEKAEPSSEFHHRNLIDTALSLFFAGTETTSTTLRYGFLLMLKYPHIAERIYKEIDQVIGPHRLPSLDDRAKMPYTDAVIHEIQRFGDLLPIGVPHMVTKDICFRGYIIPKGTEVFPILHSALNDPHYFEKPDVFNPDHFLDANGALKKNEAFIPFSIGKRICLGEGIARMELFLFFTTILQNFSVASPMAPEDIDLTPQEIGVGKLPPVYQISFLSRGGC
Protocol: as §1, §2, §3

[3] = biological target: T2, CYP2D15 (Canis lupus familiaris, UniProt Q29473); assay: CYP2D15 activity inhibition in pooled dog liver microsomes; type: in vitro ADME; settings: no preincubation vs 20 min preincubation, 10 μM
T2 construct: P450-specific marker activities in pooled dog liver microsomes; from tissue; host or cells: pooled dog liver microsomes
T2 sequence (Q29473 1-500): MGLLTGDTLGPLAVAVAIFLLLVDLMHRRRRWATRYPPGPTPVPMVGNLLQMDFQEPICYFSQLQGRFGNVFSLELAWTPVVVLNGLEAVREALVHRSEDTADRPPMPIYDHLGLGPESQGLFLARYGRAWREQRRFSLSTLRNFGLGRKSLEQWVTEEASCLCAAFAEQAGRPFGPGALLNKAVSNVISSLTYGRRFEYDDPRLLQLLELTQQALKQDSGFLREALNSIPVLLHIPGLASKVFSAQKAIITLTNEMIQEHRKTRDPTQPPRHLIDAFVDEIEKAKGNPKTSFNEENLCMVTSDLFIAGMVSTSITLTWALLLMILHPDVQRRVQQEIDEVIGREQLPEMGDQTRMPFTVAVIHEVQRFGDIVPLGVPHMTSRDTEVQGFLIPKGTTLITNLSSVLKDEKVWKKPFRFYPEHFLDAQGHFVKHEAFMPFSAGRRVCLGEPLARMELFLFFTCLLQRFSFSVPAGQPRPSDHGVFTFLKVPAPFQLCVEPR

[4] = test system: 17-71 B cell lymphoma cell line; assay: 48 hours MTT proliferation assay, 17-71; type: cell-based, canine; settings: pure compound
Protocol: (§4) 3-(4,5-Dimethylthaizol-2-yl)-2,5-diphenyltetrazolium bromide (MTT) assays are performed on all previously described cell lines; CMT12, HMPOS, D17, Abrams and 17-71. […] Cells are treated with vehicle (methanol or ethanol/DMSO mix) or various concentrations of the CBD, CBDA or CBD-rich hemp extract ranging from 0.42 to 20 μg/mL in serial dilution for 48 hours. MTT assays are performed after 48 hours of treatment by adding 20 μL of MTT dye ([…] filtered 5 mg/mL in phosphate-buffered saline [PBS]) to each well and incubating at 37° C. in 5% CO2 for 2 hours. The media is then aspirated, washed once with 200 μL of PBS and then solubilized in 200 μL of ethanol. Immediate analysis of the optical density of each well is performed using a spectrophotometric plate reader (Epoch; Biotek, Winooski, Vermont) at a wavelength of 570 nm as previously described (e.g., Vega-Avila E and Pugsley M K, An overview of colorimetric assay methods used to assess survival or proliferation of mammalian cells, Proc West Pharmacol Soc., 2011, 54, pp. 10-14 which is incorporated herein by reference in its entirety). The percent proliferating cells of control for each concentration is averaged and reported as a mean+/—SD from triplicate wells over three experiments.
(§5) For CBD, CBDA and hemp extract concentrations needed to obtain a 50% inhibition of cell proliferation (IC50) are then calculated across experiments by Probit analysis using XLFit5 software (IDBS, Guildford, United Kingdom) for reporting the results for each cell line.

[5] = test system: CMT12 mammary gland carcinoma cell line; assay: 48 hours MTT proliferation assay, CMT12; type: cell-based, canine; settings: pure compound
Protocol: as §4, §5

[6] = test system: Abrams osteosarcoma cell line; assay: 48 hours MTT proliferation assay, Abrams; type: cell-based, canine; settings: pure compound
Protocol: as §4, §5

[7] = test system: D17 osteosarcoma cell line; assay: 48 hours MTT proliferation assay, D17; type: cell-based, canine; settings: pure compound
Protocol: as §4, §5

[8] = test system: HMPOS osteosarcoma cell line; assay: 48 hours MTT proliferation assay, HMPOS; type: cell-based, canine; settings: pure compound
Protocol: as §4, §5

[9] = biological target: T3, canine P-glycoprotein (Canis lupus familiaris, UniProt C0KKU9); assay: P-glycoprotein competitive transport assay (rhodamine 123, MDCK PGP cells); type: in vitro ADME; settings: rhodamine competition, CBD at 1000 ng/mL
T3 construct: host or cells: MDCK PGP cells (canine P-gp expressing cell line)
T3 sequence (C0KKU9 1-1281): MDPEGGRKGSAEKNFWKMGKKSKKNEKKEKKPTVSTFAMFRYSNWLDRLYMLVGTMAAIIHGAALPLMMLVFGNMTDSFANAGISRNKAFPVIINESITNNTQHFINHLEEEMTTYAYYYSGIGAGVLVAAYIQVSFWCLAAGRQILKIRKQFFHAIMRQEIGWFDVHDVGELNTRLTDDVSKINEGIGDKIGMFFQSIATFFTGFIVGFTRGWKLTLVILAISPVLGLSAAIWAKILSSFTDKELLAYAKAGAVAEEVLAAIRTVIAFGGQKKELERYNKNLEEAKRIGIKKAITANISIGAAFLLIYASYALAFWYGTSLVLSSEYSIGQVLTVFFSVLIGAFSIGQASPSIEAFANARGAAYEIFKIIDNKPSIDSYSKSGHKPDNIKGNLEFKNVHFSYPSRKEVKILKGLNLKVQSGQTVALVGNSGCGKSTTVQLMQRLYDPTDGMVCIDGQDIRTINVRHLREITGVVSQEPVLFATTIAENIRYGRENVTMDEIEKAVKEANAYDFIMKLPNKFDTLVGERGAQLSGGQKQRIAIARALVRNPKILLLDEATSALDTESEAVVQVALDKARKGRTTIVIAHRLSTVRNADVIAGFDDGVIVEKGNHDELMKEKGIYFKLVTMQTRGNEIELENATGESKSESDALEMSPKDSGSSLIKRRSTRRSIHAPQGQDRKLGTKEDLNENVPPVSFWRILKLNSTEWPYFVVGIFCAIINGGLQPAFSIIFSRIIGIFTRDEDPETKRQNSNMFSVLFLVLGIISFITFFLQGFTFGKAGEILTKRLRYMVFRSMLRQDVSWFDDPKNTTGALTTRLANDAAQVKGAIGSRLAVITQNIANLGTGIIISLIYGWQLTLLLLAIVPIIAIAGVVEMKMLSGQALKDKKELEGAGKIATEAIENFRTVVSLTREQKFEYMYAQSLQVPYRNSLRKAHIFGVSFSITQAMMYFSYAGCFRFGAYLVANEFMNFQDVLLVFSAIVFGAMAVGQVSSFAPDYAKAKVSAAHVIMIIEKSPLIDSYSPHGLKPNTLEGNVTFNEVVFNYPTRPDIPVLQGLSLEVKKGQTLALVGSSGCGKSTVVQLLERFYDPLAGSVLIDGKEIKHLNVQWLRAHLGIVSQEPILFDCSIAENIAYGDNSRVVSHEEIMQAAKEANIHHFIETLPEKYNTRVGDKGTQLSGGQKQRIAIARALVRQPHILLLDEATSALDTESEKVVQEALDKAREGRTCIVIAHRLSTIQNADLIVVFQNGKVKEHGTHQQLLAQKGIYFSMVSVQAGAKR
Protocol: In this second study, a competitive P-gp substrate assay incorporating a canine P-gp expressing cell line is used to assess each test compound's ability to compete with the P-gp substrate rhodamine 123. Each concentration is tested on 3 separate days with same-day duplicates. Positive controls and negative controls are included in each run.
Results for each concentration of test compound evaluated are reported as non-P-gp substrate, weak P-gp substrate, moderate P-gp substrate, or strong P-gp substrate. The concentrations for CBD and CBDA are as follows: 10 ng/mL, 100 ng/mL and 1,000 ng/mL.
A competitive P-gp substrate assay using a canine P-gp expressing cell line was used to assess CBDA and/or CBD as a substrate for canine P-glycoprotein.

[10] = Pharmacokinetics of three oral forms of CBD-rich hemp extract in dogs (serum LC-MS/MS); settings: oral hemp extract forms 2 mg/kg CBD/CBDA
From the text: The pharmacokinetics of cannabidiol (CBD), cannabidiolic acid (CBDA), Δ9-tetrahydrocannabinol (THC), and tetrahydrocannabinolic acid (THCA) on three oral forms of CBD-rich hemp extract that contained near equal amounts of CBD and CBDA, and minor amounts (<0.3% by weight) of THC and THCA in dogs were studied. The metabolized psychoactive component of THC, 11-hydroxy-Δ9-tetrahydrocannabinol (11-OH-THC) and CBD metabolites 7-hydroxycannabidiol (7-OH-CBD) and 7-nor-7-carboxycannabidiol (7-COOH-CBD) were also assessed to better understand the pharmacokinetic differences between three formulations regarding THC and CBD, and their metabolism. Six purpose-bred female beagles were utilized for study purposes, each having an initial 7-point, 24-h pharmacokinetic study performed using a dose of 2 mg/kg body weight of CBD/CBDA (˜1 mg/kg CBD and ˜1 mg/kg CBDA). Dogs were then dosed every 12 h for 2 weeks and had further serum analyses at weeks 1 and 2, 6 h after the morning dose to assess serum cannabinoids. Serum was analyzed for each cannabinoid or cannabinoid metabolite using liquid chromatography and tandem mass spectroscopy (LC-MS/MS).

[11] = test system: CMT12 cell line; settings: 48 hours MTT
Protocol: (§6) CMT12, 17-71 and D17 cells are plated at a density of 2500 cells per well in 96-well tissue culture-treated plates (Laboratory Product Sales, Rochester, New York). All cell lines are treated with identical concentrations of the pure CBD ([…]) and various concentrations of doxorubicin or vincristine. The concentration of doxorubicin varies between cell lines in order to achieve between 20% and 80% proliferation inhibition. The cell lines are treated with serial dilutions of doxorubicin as follows; CMT12 and D17 (0.067-2 μM) and 17-71 (0.0167-0.5 μM). Methanol is used as a vehicle control for all CBD treatments and sterile water for doxorubicin and vincristine at the highest doses used to represent the vehicle control treated wells. Cells are then incubated for 48 hours prior to performing MTT assays, as previously described. Wells treated with the vehicle control are considered to represent 100% proliferating cells in triplicate over three experiments. Percent viable cells for each specific combination are averaged and reported as mean percent proliferation+/— SD for further CI evaluation.
(§7) Raw data from MTT proliferation assays and trypan blue exclusion assays (individual optical density of each well) are normalized to the vehicle control treatment for each cell line, considered to represent 100% proliferating cells (single or combined treatment). The percent proliferating cells is determined by comparing optical density readings or live counts, respectively, of treatment wells at each concentration compared with vehicle control wells in each cell line.
(§8) The compound interactions of chemotherapy and CBD treatment in the CI studies are calculated by multiple drug effect analysis using Compusyn software (v.2; Compusyn Inc, Paramus, New Jersey) which employs the median equation principle according to the methodology described by Chou and Talalay to determine a CI value by the Formula I (Chou T C, Drug combination studies and their synergy quantification using the Chou-Talalay method, Cancer Res., 2010, 70(2), pp. 440-446, which is incorporated herein by reference in its entirety):
(§9) where (D)1 and (D)2 are the doses of both compounds in combination and (Dx)1 and (Dx)2 are the doses of each compound alone at x percent of inhibition. CI values≤0.9 indicate synergism, a CI value>0.9 and <1.1 indicates an additive effect, and CI values≥1.1 indicate antagonism.

[12] = test system: D17 cell line; settings: 48 hours MTT
Protocol: as §6, §7, §8, §9

## C=C(C)[C@@H]1CCC(C)=C[C@H]1c1c(O)cc(CCCCC)c(C(=O)O)c1O [CBDA, cannabidiolic acid]
[1]
  time-dependent inhibition (TDI): did not show TDI
[2]
  time-dependent inhibition (TDI): did not show TDI
[3]
  time-dependent inhibition (TDI): did not show TDI
[4]; Canis lupus familiaris, B-cell, read-out: IC50 (Probit)
  IC50: 15.1 µg/mL (≈ 42.1 µM)
[4]; P<0.05
  concentrations that significantly diminished proliferation vs vehicle control: ≥ 5 µg/mL
[5]
  IC50 (Probit): could not be determined since 50% growth inhibition is not achieved in the assay
[5]; P<0.05
  concentrations that significantly diminished proliferation vs vehicle control: ≥ 10 µg/mL
[6]
  IC50 (Probit): could not be calculated because of lack of growth inhibition
[6]; P<0.05
  concentrations that significantly diminished proliferation vs vehicle control: 20 µg/mL
[7]
  IC50 (Probit): could not be calculated because of lack of growth inhibition
[7]; P<0.05
  concentrations that significantly diminished proliferation vs vehicle control: 20 µg/mL
[8]
  IC50 (Probit): could not be calculated because of lack of growth inhibition
[8]; P<0.05
  concentrations that significantly diminished proliferation vs vehicle control: 20 µg/mL

## N.N.O=C([O-])C1(C(=O)[O-])CCC1.[Pt+2] [Carboplatin]
[9]
  Mean MFI ratio compound:vehicle: 0.74
[9]; rhodamine alone 215
  MFI in MDCK PGP cells: 160

## CCCCCc1cc(O)c2c(c1)OC(C)(C)[C@@H]1CCC(C)=C[C@@H]21 [THC, delta-9-tetrahydrocannabinol]
[10]
  THC serum concentration: below the quantitation limit of the assay for nearly all samples

## COc1cccc2c1C(=O)c1c(O)c3c(c(O)c1C2=O)C[C@@](O)(C(=O)CO)C[C@@H]3O[C@H]1C[C@H](N)[C@H](O)[C@H](C)O1 [doxorubicin, doxorubicin hydrochloride]
[11]; doxorubicin alone
  inhibitory concentrations from IC20-IC80: 500 to 2000 nM
[12]; doxorubicin alone
  inhibitory concentrations from IC20-IC80: 500 to 2000 nM

## CC[C@]1(O)C[C@H]2CN(CCc3c([nH]c4ccccc34)[C@@](C(=O)OC)(c3cc4c(cc3OC)N(C=O)[C@H]3[C@@](O)(C(=O)OC)[C@H](OC(C)=O)[C@]5(CC)C=CCN6CC[C@]43[C@@H]65)C2)C1 [vincristine, vincristine sulfate]
[11]; vincristine alone
  IC20-IC80 values: 1.7 to 6.8 nM
[12]; vincristine alone
  IC20-IC80 values: 1.7 to 6.8 nM
